Experimental data: BigSolDB 2.1

c1ccc2c(c1)OP1(=NP3(=NP4(=N1)Oc1ccccc1O4)Oc1ccccc1O3)O2
Conditions	solubility (mole fraction)
in 1,2-dichloroethane, 293.25 K	0.000409
in 1,2-dichloroethane, 298.35 K	0.000585
in 1,2-dichloroethane, 303.15 K	0.000765
in 1,2-dichloroethane, 308.15 K	0.00107
in 1,2-dichloroethane, 313.25 K	0.0015
in 1,2-dichloroethane, 318.55 K	0.00195
in 1,2-dichloroethane, 323.15 K	0.00252
in 1,2-dichloroethane, 328.55 K	0.00324
in 1,2-dichloroethane, 333.15 K	0.00419
in 1,2-dichloroethane, 338.25 K	0.00582
in THF, 291.95 K	0.000921
in THF, 298.25 K	0.00112
in THF, 303.65 K	0.00137
in THF, 307.95 K	0.00159
in THF, 313.25 K	0.00188
in THF, 318.35 K	0.00218
in THF, 323.15 K	0.0025
in THF, 328.25 K	0.00292
in acetone, 294.35 K	0.00025
in acetone, 298.35 K	0.000323
in acetone, 303.45 K	0.000429
in acetone, 308.65 K	0.000588
in acetone, 313.35 K	0.000759
in acetone, 318.15 K	0.000977
in acetone, 323.25 K	0.00126
in acetonitrile, 293.25 K	0.000116
in acetonitrile, 298.15 K	0.000217
in acetonitrile, 303.25 K	0.000289
in acetonitrile, 308.15 K	0.000369
in acetonitrile, 313.55 K	0.000471
in acetonitrile, 318.25 K	0.000586
in acetonitrile, 323.15 K	0.000743
in acetonitrile, 328.35 K	0.000922
in acetonitrile, 333.15 K	0.00115
in chloroform, 298.15 K	0.00214
in chloroform, 303.05 K	0.0027
in chloroform, 308.05 K	0.00334
in chloroform, 313.65 K	0.00427
in chloroform, 318.55 K	0.00519
in chloroform, 323.05 K	0.00628
in chloroform, 328.75 K	0.00771
in dichloromethane, 288.15 K	0.00108
in dichloromethane, 291.55 K	0.00127
in dichloromethane, 294.45 K	0.00145
in dichloromethane, 298.35 K	0.00175
in dichloromethane, 303.45 K	0.00219
in dichloromethane, 308.65 K	0.00276
in ethanol, 293.95 K	9.52e-05
in ethanol, 298.05 K	0.000117
in ethanol, 303.25 K	0.000153
in ethanol, 308.35 K	0.000194
in ethanol, 313.35 K	0.000234
in ethanol, 318.15 K	0.000308
in ethanol, 322.95 K	0.00038
in ethanol, 328.15 K	0.000451
in ethanol, 332.45 K	0.000562
in ethyl acetate, 298.15 K	0.000419
in ethyl acetate, 303.35 K	0.000563
in ethyl acetate, 308.25 K	0.000675
in ethyl acetate, 313.45 K	0.000856
in ethyl acetate, 318.25 K	0.00107
in ethyl acetate, 323.15 K	0.00133
in ethyl acetate, 328.15 K	0.00166
in ethyl acetate, 332.45 K	0.00188
in toluene, 293.15 K	0.000667
in toluene, 298.25 K	0.000868
in toluene, 303.15 K	0.00108
in toluene, 308.35 K	0.00137
in toluene, 313.55 K	0.0017
in toluene, 318.25 K	0.00205
in toluene, 323.15 K	0.00249
in toluene, 328.35 K	0.00305
in toluene, 333.15 K	0.00367
in toluene, 338.25 K	0.00442
